The text below walks through data of US20260028326A1, “COMPOUND BASED ON ISOINDOLINE-SUBSTITUTED GLUTARIMIDE BACKBONE AND USE THEREOF” (GLUETACS THERAPEUTICS (SHANGHAI) CO., LTD., priority 2022, published 2026).

The test system of assay [1] is Daudi cells. The experiment in a line: Tumor cell proliferation IC50 (CCK-8), Daudi.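 Also: cell viability read with CCK-8 reagent after compound exposure of Daudi cells, IC50 derived from plotted growth inhibition curves.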 To be noted: Homo sapiens, read-out: IC50 for inhibiting the proliferation of tumor cells, Daudi.
Description: The tumor cells used herein were cultured in a cell culture medium listed in table A at 37° C. in an incubator with 5% CO2.
After the cells were treated with the compounds of the present disclosure for a period of time, the cell viability detection reagent was added to the culture medium for cell viability assessment according to the instructions provided with the CCK-8 kit. […] The growth inhibition of the compounds of the present disclosure on cells was plotted by Prism Graphpad software, and the IC50 values of the compounds of the present disclosure were calculated therefrom.
Assay [2] concerns the target IKZF3 protein (Homo sapiens (Human), UniProt Q96SW2+Q9UKT9). In words: Western-blot assay of substrate protein degradation in hPBMC, IKZF3. The class given is cell-based. To be noted: for residual substrate protein level, IKZF3: hPBMC cells, compound 500 nM, 24 hours, Western blot. On the technique in general: A western blot detects proteins with antibodies after separation by electrophoresis.

The subject of assay [3] is CCRF-CEM cells. The experiment in a line: Tumor cell proliferation IC50 (CCK-8), CCRF-CEM.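 Also: cell viability measured with CCK-8 reagent after compound treatment, IC50 taken from plotted growth inhibition curves.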 To be noted: Homo sapiens, 96 h, read-out: IC50 for inhibiting the proliferation of tumor cells, CCRF-CEM.
Assay [4] relates to Mino cells. In words: Tumor cell proliferation IC50 (CCK-8), Mino.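 Also: cell viability assessed with CCK-8 reagent after compound exposure, IC50 derived from plotted growth inhibition curves.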 As to conditions: Homo sapiens, 72 h, read-out: IC50 for inhibiting the proliferation of tumor cells, Mino.
In assay [5] the target is GSPT1 protein (Homo sapiens (Human), UniProt P15170+Q96SW2). The experiment in a line: Western-blot assay of substrate protein degradation in hPBMC, GSPT1. The class given is cell-based. As to conditions: for residual substrate protein level, GSPT1: hPBMC cells, compound 500 nM, 24 hours, Western blot.
For assay [6], the target named is human Cereblon WT GST-tagged protein (Homo sapiens (Human), UniProt Q96SW2). The experiment in a line: CRBN-binding affinity, HTRF (CEREBLON BINDING kit). The gist of the method:
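GST-tagged human WT Cereblon incubated with compound, then Thalidomide-Re tracer and anti-GST Eu antibody added. Displacement read by HTRF, reported as CRBN binding inhibition rate against blank control wells without protein.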

Assay [7] relates to MM.1S cells. In words: Tumor cell proliferation IC50 (CCK-8), MM.1S.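 Also: viability of cultured cells read by CCK-8 reagent after compound exposure, growth inhibition curves fitted to derive IC50.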 As to conditions: Homo sapiens, MM1.S, 72 h, read-out: IC50 for inhibiting the proliferation of tumor cells, MM.1S.
In assay [8] the target is IKZF1 protein (Homo sapiens (Human), UniProt Q13422+Q96SW2). In words: Western-blot assay of substrate protein degradation in hPBMC, IKZF1. The class given is cell-based. As to conditions: for residual substrate protein level, IKZF1: hPBMC cells, compound 500 nM, 24 hours, Western blot.
Setting [9] is: hPBMC, 24 h, serially diluted 0.03-1000 nM.

Sequence of human Cereblon WT GST-tagged protein (Q96SW2 whole entry): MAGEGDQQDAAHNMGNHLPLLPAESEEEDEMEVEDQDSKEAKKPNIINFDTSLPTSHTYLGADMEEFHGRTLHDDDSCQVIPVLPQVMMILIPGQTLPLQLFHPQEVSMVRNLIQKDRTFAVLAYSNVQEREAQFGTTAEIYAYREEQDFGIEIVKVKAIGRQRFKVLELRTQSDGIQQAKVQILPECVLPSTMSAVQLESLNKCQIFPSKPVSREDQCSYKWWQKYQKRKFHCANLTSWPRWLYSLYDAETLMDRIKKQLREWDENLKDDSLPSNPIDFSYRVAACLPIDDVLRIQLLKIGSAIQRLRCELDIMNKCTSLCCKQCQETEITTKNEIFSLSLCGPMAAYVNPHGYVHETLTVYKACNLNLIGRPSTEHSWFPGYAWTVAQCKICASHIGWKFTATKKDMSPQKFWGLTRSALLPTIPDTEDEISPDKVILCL
Sequence of IKZF3 protein (Q9UKT9 whole entry): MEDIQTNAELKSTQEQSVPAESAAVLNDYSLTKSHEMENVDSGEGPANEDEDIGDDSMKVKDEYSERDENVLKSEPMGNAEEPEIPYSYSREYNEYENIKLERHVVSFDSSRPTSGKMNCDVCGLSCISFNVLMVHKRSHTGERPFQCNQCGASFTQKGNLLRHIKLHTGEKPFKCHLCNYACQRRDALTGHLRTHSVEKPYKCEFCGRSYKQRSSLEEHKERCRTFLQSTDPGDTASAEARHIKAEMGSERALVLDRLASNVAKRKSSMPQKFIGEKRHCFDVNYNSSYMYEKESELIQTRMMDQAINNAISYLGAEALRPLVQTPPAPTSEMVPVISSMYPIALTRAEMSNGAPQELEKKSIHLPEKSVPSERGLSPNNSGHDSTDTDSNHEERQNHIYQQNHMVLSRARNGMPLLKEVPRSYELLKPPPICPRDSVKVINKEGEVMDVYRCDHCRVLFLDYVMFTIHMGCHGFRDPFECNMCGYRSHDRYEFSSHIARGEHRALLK
Sequence of IKZF3 protein (Q96SW2 whole entry): as the sequence (Q96SW2 whole entry) above
Sequence of IKZF3 protein (Q16531 whole entry partner): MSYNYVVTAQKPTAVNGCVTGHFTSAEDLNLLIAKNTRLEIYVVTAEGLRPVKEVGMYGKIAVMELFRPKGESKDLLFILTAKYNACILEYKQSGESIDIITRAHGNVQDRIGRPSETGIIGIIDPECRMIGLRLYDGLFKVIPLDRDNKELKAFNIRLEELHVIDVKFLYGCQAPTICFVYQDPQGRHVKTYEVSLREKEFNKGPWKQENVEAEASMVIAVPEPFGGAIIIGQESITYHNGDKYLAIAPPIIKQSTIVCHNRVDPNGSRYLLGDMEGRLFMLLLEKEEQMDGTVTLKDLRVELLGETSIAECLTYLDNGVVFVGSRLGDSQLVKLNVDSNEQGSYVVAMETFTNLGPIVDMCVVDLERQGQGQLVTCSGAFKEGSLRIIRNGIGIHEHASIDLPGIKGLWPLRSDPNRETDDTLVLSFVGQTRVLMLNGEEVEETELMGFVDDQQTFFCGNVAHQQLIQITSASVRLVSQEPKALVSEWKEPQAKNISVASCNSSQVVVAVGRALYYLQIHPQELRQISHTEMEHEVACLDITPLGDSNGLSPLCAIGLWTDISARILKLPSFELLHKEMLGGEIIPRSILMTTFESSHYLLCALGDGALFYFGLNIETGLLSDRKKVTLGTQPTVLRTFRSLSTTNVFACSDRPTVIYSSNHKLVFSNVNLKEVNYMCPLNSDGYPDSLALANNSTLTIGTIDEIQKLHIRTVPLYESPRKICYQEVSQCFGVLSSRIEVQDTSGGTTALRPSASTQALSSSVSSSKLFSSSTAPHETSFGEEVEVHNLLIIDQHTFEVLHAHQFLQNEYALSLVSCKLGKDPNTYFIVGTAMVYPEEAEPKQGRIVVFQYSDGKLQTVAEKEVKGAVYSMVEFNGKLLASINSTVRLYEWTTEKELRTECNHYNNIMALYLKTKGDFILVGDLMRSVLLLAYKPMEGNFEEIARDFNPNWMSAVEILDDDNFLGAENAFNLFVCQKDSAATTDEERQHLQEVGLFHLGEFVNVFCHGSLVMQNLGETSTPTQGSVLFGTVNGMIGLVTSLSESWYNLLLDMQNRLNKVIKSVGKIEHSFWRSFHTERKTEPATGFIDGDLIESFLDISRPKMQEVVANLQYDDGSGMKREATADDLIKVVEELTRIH
Sequence of GSPT1 protein (P15170 whole entry): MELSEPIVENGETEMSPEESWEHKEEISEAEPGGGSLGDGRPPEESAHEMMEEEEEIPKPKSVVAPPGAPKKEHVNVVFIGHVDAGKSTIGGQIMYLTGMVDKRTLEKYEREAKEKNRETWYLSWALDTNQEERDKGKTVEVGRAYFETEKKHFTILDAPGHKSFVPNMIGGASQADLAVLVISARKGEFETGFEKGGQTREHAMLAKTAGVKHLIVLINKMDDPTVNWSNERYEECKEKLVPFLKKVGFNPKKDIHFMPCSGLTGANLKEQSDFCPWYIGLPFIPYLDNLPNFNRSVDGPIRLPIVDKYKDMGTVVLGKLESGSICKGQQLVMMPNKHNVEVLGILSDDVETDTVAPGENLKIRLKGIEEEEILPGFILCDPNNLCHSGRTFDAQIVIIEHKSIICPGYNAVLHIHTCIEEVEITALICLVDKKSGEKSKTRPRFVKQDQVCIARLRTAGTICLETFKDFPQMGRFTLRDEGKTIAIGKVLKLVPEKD
Sequence of GSPT1 protein (Q96SW2 whole entry): as the sequence (Q96SW2 whole entry) above
Sequence of GSPT1 protein (Q16531 whole entry partner): as the sequence (Q16531 whole entry partner) above
Sequence of IKZF1 protein (Q13422 whole entry): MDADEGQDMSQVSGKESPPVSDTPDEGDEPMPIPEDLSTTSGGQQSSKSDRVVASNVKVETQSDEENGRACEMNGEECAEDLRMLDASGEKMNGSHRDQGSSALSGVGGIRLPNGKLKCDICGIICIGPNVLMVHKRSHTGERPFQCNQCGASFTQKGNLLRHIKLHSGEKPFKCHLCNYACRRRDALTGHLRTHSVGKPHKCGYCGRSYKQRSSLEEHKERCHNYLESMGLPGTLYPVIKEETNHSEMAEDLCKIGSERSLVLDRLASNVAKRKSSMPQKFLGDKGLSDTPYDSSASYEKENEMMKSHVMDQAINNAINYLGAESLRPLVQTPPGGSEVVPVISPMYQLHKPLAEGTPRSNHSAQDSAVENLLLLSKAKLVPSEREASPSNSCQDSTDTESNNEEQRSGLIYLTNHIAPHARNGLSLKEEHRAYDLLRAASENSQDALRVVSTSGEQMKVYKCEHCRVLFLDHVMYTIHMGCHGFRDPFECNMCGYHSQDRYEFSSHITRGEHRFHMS
Sequence of IKZF1 protein (Q96SW2 whole entry): as the sequence (Q96SW2 whole entry) above
Sequence of IKZF1 protein (Q16531 whole entry partner): as the sequence (Q16531 whole entry partner) above

In the case of `O=C1CCC(N2Cc3cc(NC4CN(Cc5ccccc5-c5ccc(Cl)cc5)C4)ccc3C2=O)C(=O)N1` (stereo not drawn) [GT-05382, 3-(5-((1-((4′-chloro-[1,1′-biphenyl]-2-yl)methyl)azetidin-3-yl)amino)-1-oxoisoindolin-2-yl)piperidine-2,6-dione], the IC50 is 100 to 500 nM in assay [1]; 100 to 500 nM in assay [3]; 10 to 50 nM in assay [4]; 660 nM in assay [6]; 10 to 50 nM in assay [7]. The “residual substrate protein level, IKZF3” value in assay [2] is on record as “A (A represents a residual substrate protein level of <50%)”. Besides, the “residual substrate protein level, GSPT1” value in assay [5] was “A (A represents a residual substrate protein level of <50%)”. For the same compound, the “residual substrate protein level, IKZF1” value in assay [8] is on record as “A (A represents a residual substrate protein level of <50%)”.

As for `O=C1CCC(N2Cc3cc(CN4CCN(Cc5ccccc5-c5cccs5)CC4)ccc3C2=O)C(=O)N1` (stereo not drawn) [GT-05519, 3-(1-oxo-5-((4-(2-(thiophen-2-yl)benzyl)piperazin-1-yl)methyl)isoindolin-2-yl)piperidine-2,6-dione], the IC50 in assay [1] is 5 to 10 nM; in assay [3], below 5 nM; in assay [4], below 5 nM; in assay [6] it was 410 nM; in assay [7], below 5 nM. The “residual substrate protein level, IKZF3” value in assay [2] is listed as “A (A represents a residual substrate protein level of <50%)”. The “residual substrate protein level, GSPT1” value in assay [5] is “A (A represents a residual substrate protein level of <50%)”. Also, in assay [8], the “residual substrate protein level, IKZF1” value is listed as “A (A represents a residual substrate protein level of <50%)”.

Consider `O=C1CCC(N2Cc3cc(CN4CCN(Cc5ccc(-c6ccc(Cl)cc6)cc5)CC4)ccc3C2=O)C(=O)N1` (stereo not drawn) [GT-05598, 3-(5-((4-((4′-chloro-[1,1′-biphenyl]-4-yl)methyl)piperazin-1-yl)methyl)-1-oxoisoindolin-2-yl)piperidine-2,6-dione], for which the IC50 was 500 to 1000 nM in assay [1]; 500 to 1000 nM in assay [3]; 10 to 50 nM in assay [4]; 680 nM in assay [6]; 50 to 100 nM in assay [7]. The “residual substrate protein level, IKZF3” value in assay [2] is on record as “A (A represents a residual substrate protein level of <50%)”. For the same compound, in assay [2] (setting [9]), the “concentration at which significant degradation effects on IKZF3 protein are exhibited (FIG. 1)” value was below 3 nM. In addition, the “residual substrate protein level, GSPT1” value in assay [5] is reported as “B (B represents a residual substrate protein level of >50%)”. Moreover, the “concentration at which significant degradation effects on GSPT1 protein are exhibited (FIG. 1)” value in assay [5] (setting [9]) is listed as below 3 nM. In addition, the “residual substrate protein level, IKZF1” value in assay [8] is listed as “A (A represents a residual substrate protein level of <50%)”. The “concentration at which significant degradation effects on IKZF1 protein are exhibited (FIG. 1)” value in assay [8] (setting [9]) is listed as below 3 nM.

On to `O=C1CCC(N2Cc3c(ccc(CN4CCN(Cc5ccccc5-c5ccc(F)cc5)CC4)c3F)C2=O)C(=O)N1` (stereo not drawn) [GT-05602, 3-(4-fluoro-5-((4-((4′-fluoro-[1,1′-biphenyl]-2-yl)methyl)piperazin-1-yl)methyl)-1-oxoisoindolin-2-yl)piperidine-2,6-dione], for which the IC50 in assay [1] is 5 to 10 nM; in assay [3] it was below 5 nM; in assay [4] it was below 5 nM; in assay [6] it was 560 nM; in assay [7], below 5 nM. The “residual substrate protein level, IKZF3” value in assay [2] is “A (A represents a residual substrate protein level of <50%)”. Moreover, the “residual substrate protein level, GSPT1” value in assay [5] was “A (A represents a residual substrate protein level of <50%)”. Also, the “residual substrate protein level, IKZF1” value in assay [8] is “A (A represents a residual substrate protein level of <50%)”.

Consider `O=C1CCC(N2Cc3cc(CN4CCN(Cc5ccccc5-c5ccc(F)cc5)CC4)c(F)cc3C2=O)C(=O)N1` (stereo not drawn) [GT-05603, 3-(6-fluoro-5-((4-((4′-fluoro-[1,1′-biphenyl]-2-yl)methyl)piperazin-1-yl)methyl)-1-oxoisoindolin-2-yl)piperidine-2,6-dione], for which the IC50 in assay [1] was 5 to 10 nM; in assay [3], 2.5 nM; in assay [4], below 5 nM; in assay [6] it was 940 nM; in assay [7], below 5 nM. In assay [2], the “residual substrate protein level, IKZF3” value was “A (A represents a residual substrate protein level of <50%)”. For the same compound, the “residual substrate protein level, GSPT1” value in assay [5] is listed as “A (A represents a residual substrate protein level of <50%)”. For the same compound, in assay [8], the “residual substrate protein level, IKZF1” value is listed as “A (A represents a residual substrate protein level of <50%)”.

For `O=C1CCC(N2Cc3cc(CN4CCN(C(=O)c5ccccc5-c5ccc(Cl)cc5)CC4)c(F)cc3C2=O)C(=O)N1` (stereo not drawn) [GT-05650, 3-(5-((4-(4′-chloro-[1,1′-biphenyl]-2-carbonyl)piperazin-1-yl)methyl)-6-fluoro-1-oxoisoindolin-2-yl)piperidine-2,6-dione], the IC50 in assay [1] is 100 to 500 nM; in assay [3] it was 10 to 50 nM; in assay [4], 50 to 100 nM; in assay [6], 940 nM; in assay [7], 10 to 50 nM. In assay [2], the “residual substrate protein level, IKZF3” value is recorded as “A (A represents a residual substrate protein level of <50%)”. The “residual substrate protein level, GSPT1” value in assay [5] was “A (A represents a residual substrate protein level of <50%)”. Also, the “residual substrate protein level, IKZF1” value in assay [8] is given as “A (A represents a residual substrate protein level of <50%)”.

As for `CC1(C)CCC(C(=O)N2CC3(CN(Cc4ccc5c(c4)CN(C4CCC(=O)NC4=O)C5=O)C3)C2)=C(c2ccc(F)cc2)C1` (stereo not drawn) [GT-05664, 3-(5-((6-(4′-fluoro-5,5-dimethyl-3,4,5,6-tetrahydro-[1,1′-biphenyl]-2-carbonyl)-2,6-diazaspiro[3.3]heptan-2-yl)methyl)-1-oxoisoindolin-2-yl)piperidine-2,6-dione], the IC50 in assay [1] is 100 to 500 nM; in assay [3] it was 10 to 50 nM; in assay [4] it was 10 to 50 nM; in assay [6], 560 nM; in assay [7] it was 10 to 50 nM. In assay [2], the “residual substrate protein level, IKZF3” value is reported as “A (A represents a residual substrate protein level of <50%)”. In addition, the “residual substrate protein level, GSPT1” value in assay [5] is given as “A (A represents a residual substrate protein level of <50%)”. Also, the “residual substrate protein level, IKZF1” value in assay [8] is listed as “A (A represents a residual substrate protein level of <50%)”.

Take `O=C1CCC(N2Cc3cc(CN4CCN(Cc5ncccc5-c5ccc(Cl)cc5)CC4)ccc3C2=O)C(=O)N1` (stereo not drawn) [GT-05778, 3-(5-((4-((3-(4-chlorophenyl)pyridin-2-yl)methyl)piperazin-1-yl)methyl)-1-oxoisoindolin-2-yl)piperidine-2,6-dione]: the IC50 in assay [1] was 5 to 10 nM; in assay [3] it was below 5 nM; in assay [4], below 5 nM; in assay [6], 560 nM; in assay [7], below 5 nM. Further, the “residual substrate protein level, IKZF3” value in assay [2] was “A (A represents a residual substrate protein level of <50%)”. In assay [5], the “residual substrate protein level, GSPT1” value was “A (A represents a residual substrate protein level of <50%)”. For the same compound, in assay [8], the “residual substrate protein level, IKZF1” value is given as “A (A represents a residual substrate protein level of <50%)”.

In the case of `Cc1ccc(C2=C(CN3CCN(Cc4ccc5c(c4)CN(C4CCC(=O)NC4=O)C5=O)CC3)CCC(C)(C)C2)cc1` (stereo not drawn) [GT-05792, 3-(1-oxo-5-((4-((4′,5,5-trimethyl-3,4,5,6-tetrahydro-[1,1′-biphenyl]-2-yl)methyl)piperazin-1-yl)methyl)isoindolin-2-yl)piperidine-2,6-dione], the IC50 was 50 to 100 nM in assay [1]; 5 to 10 nM in assay [3]; 5 to 10 nM in assay [4]; 660 nM in assay [6]; 5 to 10 nM in assay [7].
